Experimental data from paper PMC6599972, “Inhibition of host NOX1 blocks tumor growth and enhances checkpoint inhibitor–based immunotherapy” (Life Science Alliance, 2019).

Assays:
NOX4 = target: T1, NOX4 (Homo sapiens, UniProt Q9NPH5); assay: Amplex Red/HRP ROS production assay on membranes of NOX4-overexpressing cells, concentration-response; type: biochemical
T1 construct: membranes prepared from cells specifically overexpressing the human NOX isoform
T1 sequence (Q9NPH5 1-578): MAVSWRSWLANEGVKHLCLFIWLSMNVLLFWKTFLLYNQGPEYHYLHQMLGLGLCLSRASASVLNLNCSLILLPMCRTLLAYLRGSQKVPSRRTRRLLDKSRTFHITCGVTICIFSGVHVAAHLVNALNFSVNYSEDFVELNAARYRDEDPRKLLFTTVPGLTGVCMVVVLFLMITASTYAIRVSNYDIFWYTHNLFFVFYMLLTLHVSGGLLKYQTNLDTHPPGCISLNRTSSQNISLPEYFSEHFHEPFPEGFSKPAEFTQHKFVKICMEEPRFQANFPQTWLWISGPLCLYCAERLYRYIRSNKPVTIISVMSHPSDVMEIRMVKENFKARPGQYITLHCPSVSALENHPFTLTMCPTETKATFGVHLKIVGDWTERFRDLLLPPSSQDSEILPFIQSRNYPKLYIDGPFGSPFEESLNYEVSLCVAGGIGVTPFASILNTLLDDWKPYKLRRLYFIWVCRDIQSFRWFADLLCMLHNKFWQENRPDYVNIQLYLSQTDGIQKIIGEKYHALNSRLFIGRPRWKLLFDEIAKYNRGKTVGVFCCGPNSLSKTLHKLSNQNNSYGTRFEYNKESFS

NOX1 = target: T2, NOX1 (Homo sapiens, UniProt Q9Y5S8); assay: Amplex Red/HRP ROS production assay on membranes of NOX1-overexpressing cells, concentration-response; type: biochemical
T2 construct: membranes prepared from cells specifically overexpressing the human NOX isoform
T2 sequence (Q9Y5S8 1-564): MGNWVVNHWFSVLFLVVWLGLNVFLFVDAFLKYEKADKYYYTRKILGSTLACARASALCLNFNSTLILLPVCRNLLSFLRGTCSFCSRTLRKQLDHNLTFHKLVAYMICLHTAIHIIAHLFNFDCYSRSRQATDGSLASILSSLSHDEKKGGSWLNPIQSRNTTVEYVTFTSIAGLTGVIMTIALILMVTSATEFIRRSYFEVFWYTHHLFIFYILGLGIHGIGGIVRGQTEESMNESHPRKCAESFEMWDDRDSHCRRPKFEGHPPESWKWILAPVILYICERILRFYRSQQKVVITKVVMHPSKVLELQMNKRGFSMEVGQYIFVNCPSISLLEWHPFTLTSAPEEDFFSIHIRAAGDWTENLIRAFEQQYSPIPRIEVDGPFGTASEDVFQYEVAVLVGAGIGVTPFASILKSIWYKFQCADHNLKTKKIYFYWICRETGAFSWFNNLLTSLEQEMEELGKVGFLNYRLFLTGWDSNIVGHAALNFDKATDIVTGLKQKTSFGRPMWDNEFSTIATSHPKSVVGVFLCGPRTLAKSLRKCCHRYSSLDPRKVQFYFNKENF

Ki (NOX4): 4 µM
Ki (NOX1): 0.06 ± 0.006 µM
Substance: GKT771
